From ChEMBL document CHEMBL1201862, “PubChem BioAssay data set” (2004) come the findings set out here.

Molecules are shown by their SMILES. Activity calls are given as the source filed them. Bounds are passed on as bounds.

In assay [1] the target is Neuropeptide Y receptor type 1 (Homo sapiens, UniProt P25929). The format is functional.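 Note: HEK293 cells with a CNG channel challenged with NPY then isoproterenol; potency as antagonist that reverses NPY suppression of cAMP signal.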
Assay [2] addresses Neuropeptide Y receptor type 2 (Homo sapiens, UniProt P49146). The format is functional, cell-based.
Assay [3] deals with Diphosphomevalonate decarboxylase (Streptococcus pneumoniae serotype 2 (strain D39 / NCTC 7466), UniProt Q9FD53). Briefly: diphosphomevalonate decarboxylase inhibitor confirmation – biochemical, cuvette format, coupled NADH fluorescence (AID 1028). The format is functional.
Assay [4] addresses T1, Aryl hydrocarbon receptor (Homo sapiens, UniProt P35869).
T1 sequence (P35869 whole entry): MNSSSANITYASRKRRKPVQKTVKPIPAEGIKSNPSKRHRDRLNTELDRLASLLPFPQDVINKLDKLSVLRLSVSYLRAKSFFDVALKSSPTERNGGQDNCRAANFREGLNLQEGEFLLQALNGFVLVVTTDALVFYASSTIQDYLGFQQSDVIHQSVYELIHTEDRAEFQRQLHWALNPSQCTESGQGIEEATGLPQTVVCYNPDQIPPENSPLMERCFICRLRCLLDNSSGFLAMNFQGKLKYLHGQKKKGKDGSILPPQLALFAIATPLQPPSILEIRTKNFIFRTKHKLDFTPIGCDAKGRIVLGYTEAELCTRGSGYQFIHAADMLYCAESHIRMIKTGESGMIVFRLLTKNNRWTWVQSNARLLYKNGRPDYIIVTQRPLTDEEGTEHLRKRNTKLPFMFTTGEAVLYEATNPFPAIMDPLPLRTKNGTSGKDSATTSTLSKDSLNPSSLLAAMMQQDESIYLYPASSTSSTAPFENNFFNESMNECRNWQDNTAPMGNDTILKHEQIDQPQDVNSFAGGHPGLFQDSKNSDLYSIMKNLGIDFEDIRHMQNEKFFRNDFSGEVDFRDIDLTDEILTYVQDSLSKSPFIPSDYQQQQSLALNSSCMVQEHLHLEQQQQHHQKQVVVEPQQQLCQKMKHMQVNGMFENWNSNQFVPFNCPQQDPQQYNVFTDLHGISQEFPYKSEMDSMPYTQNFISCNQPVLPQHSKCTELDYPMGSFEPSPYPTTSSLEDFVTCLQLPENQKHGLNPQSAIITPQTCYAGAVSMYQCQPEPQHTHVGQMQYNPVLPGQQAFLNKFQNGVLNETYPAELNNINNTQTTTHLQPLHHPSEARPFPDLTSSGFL
Briefly: Luminescence-based cell-based high throughput dose response assay for activators of the Aryl Hydrocarbon Receptor (AHR). [Related pubchem assays: 2796 (Primary screen (AHR activators in singlicate)), 2845 (Confirmation screen (AHR activators in triplicate)), 434939 (Counterscreen (PXR activators in triplicate)), 2804 (Summary (AHR activators))]. The format is ADME. For orientation: Counterscreens check selectivity or assay interference.

Assay [5] concerns the target Luciferin 4-monooxygenase (Photinus pyralis, UniProt P08659). Briefly: inhibition of purified Photinus pyralis luciferase – biochemical, luminescence, dose response (AID 1891).
Assay [6] in a line: Luminescence Cell-Based Dose Confirmation HTS to Identify Inhibitors of Platelet Dense Granule Release. [Related pubchem assays: 1663 (Primary HTS), 1678 (Summary of Project)]. In kind it is functional.
Assay [7] in a line: Fluorescence Cell-Based Dose Response to Identify Inhibitors of Thrombin Receptor-Activating Peptide SFLLRN-Mediated P-Selectin Induction on Platelets. [Related pubchem assays: 1663 (Primary HTS), 1889 (retest at dose ), 1891 (counterscreen), 1678 (Project Summary)]. In kind it is functional.
Assay [8] addresses Epstein-Barr nuclear antigen 1 (Epstein-Barr virus (strain B95-8) (HHV-4) (Human herpesvirus 4), UniProt P03211). Briefly: inhibition of EBV nuclear antigen 1 DNA binding – biochemical, fluorescence polarization, 1536-well, dose response (AID 2381).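 Note: fluorescence polarization of a Cy5 DNA probe bound by EBNA-1 protein.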 Details: species or system human gammaherpesvirus 4. (In general: Polarisation of emitted light reports the rotation of a fluorescent probe.)

In assay [9] the target is Lytic switch protein BZLF1 (Epstein-Barr virus (strain B95-8) (HHV-4) (Human herpesvirus 4), UniProt P03206). Briefly: inhibition of BZLF1 ZTA DNA binding – biochemical, fluorescence polarization, Epstein-Barr virus, 1536-well, counter-screen for EBNA-1 inhibitor project, dose response (AID 2377).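 Note: fluorescence polarization of Cy5-labelled ZRE DNA probe bound by purified Zta.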 Details: species or system human gammaherpesvirus 4.
Assay [10] in a line: Luminescence Cell-Based Dose Confirmation HTS to Identify Inhibitors of Polyadenylation. The format is functional.
Another assay has as its target NADPH oxidase 1 (Homo sapiens, UniProt Q9Y5S8). Briefly: Late-stage luminescence-based cell-based dose response assay to identify inhibitors of NADPH oxidase 1 (NOX1): Purchased analogs 2. The format is functional.
A further assay has as its target T2, Bcl-2-like protein 10 (Homo sapiens, UniProt Q9HD36).
T2 sequence (Q9HD36 whole entry): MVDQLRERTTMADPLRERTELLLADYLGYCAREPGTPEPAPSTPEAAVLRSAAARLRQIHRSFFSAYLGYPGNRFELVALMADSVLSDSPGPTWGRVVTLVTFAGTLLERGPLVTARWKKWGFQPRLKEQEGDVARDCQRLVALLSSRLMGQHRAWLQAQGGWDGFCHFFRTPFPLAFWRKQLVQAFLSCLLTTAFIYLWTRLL
Put plainly: Bcl-B/TR3 peptide binding disruption – biochemical, fluorescence polarization, FITC-TR3 peptide, selectivity assay for Bfl-1 inhibitor project, primary screen (AID 748).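 Note: fluorescence polarization from a fluorescein-labelled TR3 peptide binding purified Bcl-B.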

The target in assay [11] is T3, SUMO-activating enzyme (Homo sapiens, UniProt Q9UBT2). Briefly: blockers of UBC9-mediated SUMO conjugation – biochemical, AlphaScreen, SUMOylation inhibitor project, confirmation (AID 2018). In kind it is functional. (In general: Alpha assays give light when donor and acceptor beads are brought close together.)
The target in assay [12] is T3, SUMO-activating enzyme. Briefly: blockers of SAE1/SAE2–UBC9 SUMO transfer – biochemical, HTRF, uHTS, primary screen (AID 2006). The format is protein-complex assay.
Assay [13] concerns the target Induced myeloid leukemia cell differentiation protein Mcl-1 (Homo sapiens, UniProt Q07820). Put plainly: blockers of MCL1 binding to BIM peptide – biochemical, fluorescence polarization, BIM-BH3 peptide, 1536-well, dose response (AID 2217).
The target in assay [14] is T4, Estrogen receptor beta (Homo sapiens, UniProt Q92731).
Assay [15] has as its target T4, Estrogen receptor beta. Put plainly: blockers of SRC-3 recruitment to ERβ – biochemical, ELISA, streptavidin-HRP readout, orthogonal assay, confirmation (AID 1060).
Another assay has as its target Bcl-2-like protein 1 (Homo sapiens, UniProt Q07817). Briefly: blockers of BCLXL peptide binding – biochemical, fluorescence polarization, 1536-well, selectivity assay for MCL1 inhibitor project, dose response (AID 2218).

T4 sequence (Q92731 whole entry): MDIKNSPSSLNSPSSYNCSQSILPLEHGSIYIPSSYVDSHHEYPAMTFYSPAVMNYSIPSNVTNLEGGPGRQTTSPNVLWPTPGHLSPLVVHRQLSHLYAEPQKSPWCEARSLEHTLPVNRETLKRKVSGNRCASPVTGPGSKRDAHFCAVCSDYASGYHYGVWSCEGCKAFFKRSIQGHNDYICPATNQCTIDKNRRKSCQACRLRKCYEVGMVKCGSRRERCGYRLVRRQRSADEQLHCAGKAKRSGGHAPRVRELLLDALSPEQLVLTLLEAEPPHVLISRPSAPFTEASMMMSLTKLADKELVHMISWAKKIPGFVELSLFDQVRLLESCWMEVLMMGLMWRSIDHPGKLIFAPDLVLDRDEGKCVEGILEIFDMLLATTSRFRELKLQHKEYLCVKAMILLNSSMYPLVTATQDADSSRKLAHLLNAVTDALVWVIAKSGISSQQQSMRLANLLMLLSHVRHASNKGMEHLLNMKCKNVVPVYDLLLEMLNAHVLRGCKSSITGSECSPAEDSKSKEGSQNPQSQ
T3 sequence (Q9UBE0 whole entry): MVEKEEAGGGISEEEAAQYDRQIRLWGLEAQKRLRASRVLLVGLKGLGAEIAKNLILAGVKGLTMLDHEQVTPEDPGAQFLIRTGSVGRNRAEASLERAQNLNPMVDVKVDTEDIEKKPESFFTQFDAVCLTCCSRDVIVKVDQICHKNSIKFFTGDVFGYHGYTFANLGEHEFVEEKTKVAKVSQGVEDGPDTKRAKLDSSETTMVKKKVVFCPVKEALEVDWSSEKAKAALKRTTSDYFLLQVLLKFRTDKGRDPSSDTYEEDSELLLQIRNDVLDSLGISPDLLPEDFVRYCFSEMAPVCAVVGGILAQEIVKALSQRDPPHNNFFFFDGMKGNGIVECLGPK
T3 sequence (Q9UBT2 whole entry): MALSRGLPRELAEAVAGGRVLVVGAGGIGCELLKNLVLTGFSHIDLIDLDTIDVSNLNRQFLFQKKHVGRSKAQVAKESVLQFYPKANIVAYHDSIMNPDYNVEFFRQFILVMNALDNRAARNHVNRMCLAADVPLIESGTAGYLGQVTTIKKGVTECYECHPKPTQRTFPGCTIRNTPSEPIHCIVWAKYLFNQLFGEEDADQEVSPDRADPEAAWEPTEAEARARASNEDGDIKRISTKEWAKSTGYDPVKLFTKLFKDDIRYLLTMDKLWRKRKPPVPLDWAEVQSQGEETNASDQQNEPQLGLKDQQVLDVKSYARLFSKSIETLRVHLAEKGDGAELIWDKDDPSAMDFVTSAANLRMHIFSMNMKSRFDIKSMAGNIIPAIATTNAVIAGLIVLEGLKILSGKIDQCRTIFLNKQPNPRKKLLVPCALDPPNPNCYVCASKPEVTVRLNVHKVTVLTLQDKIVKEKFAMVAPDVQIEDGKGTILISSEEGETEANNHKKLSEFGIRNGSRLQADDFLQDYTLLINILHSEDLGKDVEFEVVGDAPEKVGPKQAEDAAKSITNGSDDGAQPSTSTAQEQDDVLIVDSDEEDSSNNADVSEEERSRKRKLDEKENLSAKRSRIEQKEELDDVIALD
Sequence of Bcl-2-like protein 1 (Q07817 whole entry): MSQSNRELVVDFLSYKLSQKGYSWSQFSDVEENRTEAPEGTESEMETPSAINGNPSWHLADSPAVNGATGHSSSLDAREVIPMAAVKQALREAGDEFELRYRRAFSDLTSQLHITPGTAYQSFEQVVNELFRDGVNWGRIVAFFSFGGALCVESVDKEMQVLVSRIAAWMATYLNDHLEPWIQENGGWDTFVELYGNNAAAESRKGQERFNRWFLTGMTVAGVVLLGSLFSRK
Sequence of Lytic switch protein BZLF1 (P03206 whole entry): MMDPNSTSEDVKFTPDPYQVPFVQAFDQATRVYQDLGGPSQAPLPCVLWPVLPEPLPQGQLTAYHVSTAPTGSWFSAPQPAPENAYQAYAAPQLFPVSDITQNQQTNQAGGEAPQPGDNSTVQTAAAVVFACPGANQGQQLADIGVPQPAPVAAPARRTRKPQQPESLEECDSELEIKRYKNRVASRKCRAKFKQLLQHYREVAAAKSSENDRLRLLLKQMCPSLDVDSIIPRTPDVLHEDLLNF
Sequence of Luciferin 4-monooxygenase (P08659 whole entry): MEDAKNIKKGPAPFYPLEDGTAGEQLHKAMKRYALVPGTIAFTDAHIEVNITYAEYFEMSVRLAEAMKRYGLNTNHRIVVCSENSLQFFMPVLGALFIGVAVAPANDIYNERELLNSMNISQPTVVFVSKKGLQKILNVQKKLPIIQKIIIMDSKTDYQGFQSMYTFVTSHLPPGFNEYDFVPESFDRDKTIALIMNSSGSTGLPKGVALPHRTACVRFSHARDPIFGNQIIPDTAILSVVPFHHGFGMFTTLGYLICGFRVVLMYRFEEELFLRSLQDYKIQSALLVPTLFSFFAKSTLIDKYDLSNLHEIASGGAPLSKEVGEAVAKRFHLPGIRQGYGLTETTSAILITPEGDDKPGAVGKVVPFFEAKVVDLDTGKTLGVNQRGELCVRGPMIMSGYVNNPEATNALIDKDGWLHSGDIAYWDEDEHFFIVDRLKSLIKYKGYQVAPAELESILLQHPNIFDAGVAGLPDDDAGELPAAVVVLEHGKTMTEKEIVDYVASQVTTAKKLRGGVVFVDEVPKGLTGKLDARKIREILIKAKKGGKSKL
Sequence of Neuropeptide Y receptor type 1 (P25929 whole entry): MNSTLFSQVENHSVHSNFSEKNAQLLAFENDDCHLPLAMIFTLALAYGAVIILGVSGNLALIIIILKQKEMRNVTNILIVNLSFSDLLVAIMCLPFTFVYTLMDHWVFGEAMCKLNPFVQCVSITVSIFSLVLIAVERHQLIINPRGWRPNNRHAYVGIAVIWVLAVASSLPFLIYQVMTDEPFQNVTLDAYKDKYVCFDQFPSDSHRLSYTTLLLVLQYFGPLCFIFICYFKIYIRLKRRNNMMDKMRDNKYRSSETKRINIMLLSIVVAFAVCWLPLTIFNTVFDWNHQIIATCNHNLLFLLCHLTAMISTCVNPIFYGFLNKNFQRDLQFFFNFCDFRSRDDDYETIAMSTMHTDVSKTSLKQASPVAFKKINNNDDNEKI
Sequence of Neuropeptide Y receptor type 2 (P49146 whole entry): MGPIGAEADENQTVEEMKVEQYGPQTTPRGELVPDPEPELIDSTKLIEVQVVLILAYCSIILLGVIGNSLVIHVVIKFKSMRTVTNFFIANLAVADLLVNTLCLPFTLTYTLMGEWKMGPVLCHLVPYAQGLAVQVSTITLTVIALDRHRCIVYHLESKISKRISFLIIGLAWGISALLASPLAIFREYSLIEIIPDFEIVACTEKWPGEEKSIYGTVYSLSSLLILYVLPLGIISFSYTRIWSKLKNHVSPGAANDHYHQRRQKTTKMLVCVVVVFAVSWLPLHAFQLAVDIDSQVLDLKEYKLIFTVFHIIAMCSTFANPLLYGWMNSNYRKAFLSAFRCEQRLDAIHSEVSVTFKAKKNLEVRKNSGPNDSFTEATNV
Sequence of Induced myeloid leukemia cell differentiation protein Mcl-1 (Q07820 whole entry): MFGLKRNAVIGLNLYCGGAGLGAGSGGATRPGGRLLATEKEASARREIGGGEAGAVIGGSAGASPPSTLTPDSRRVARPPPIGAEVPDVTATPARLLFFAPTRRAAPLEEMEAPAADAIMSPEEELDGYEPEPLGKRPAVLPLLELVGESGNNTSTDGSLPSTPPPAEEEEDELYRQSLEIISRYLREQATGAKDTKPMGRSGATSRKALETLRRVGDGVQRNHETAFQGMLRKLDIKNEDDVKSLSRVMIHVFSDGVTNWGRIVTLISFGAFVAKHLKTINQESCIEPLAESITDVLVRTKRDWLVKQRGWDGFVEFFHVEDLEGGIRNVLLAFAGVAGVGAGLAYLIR
Sequence of NADPH oxidase 1 (Q9Y5S8 whole entry): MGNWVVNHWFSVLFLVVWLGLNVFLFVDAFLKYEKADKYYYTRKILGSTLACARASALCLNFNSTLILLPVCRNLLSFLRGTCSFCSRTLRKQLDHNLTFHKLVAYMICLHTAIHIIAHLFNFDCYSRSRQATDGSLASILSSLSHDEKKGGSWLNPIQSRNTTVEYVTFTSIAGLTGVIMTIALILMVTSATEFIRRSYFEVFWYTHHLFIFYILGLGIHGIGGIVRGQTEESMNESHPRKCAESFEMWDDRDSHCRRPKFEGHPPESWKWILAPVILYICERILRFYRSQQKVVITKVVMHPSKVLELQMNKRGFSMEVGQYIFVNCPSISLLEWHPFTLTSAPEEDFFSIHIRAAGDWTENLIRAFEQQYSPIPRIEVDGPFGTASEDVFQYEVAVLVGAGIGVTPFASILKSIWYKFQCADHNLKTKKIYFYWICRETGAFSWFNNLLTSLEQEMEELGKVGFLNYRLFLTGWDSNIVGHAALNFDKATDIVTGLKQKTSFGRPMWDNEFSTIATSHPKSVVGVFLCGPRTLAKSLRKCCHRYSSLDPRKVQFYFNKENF
Sequence of Diphosphomevalonate decarboxylase (Q9FD53 whole entry): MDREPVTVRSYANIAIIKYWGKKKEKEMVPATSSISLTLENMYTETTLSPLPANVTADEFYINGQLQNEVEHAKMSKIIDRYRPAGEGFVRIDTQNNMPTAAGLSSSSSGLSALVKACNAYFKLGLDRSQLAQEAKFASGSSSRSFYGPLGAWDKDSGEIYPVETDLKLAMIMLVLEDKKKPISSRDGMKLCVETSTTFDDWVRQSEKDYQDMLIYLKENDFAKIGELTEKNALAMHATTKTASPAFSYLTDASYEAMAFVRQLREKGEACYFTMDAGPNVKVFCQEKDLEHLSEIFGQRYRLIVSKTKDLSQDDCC

For orientation: IC50 means the point on the concentration scale where inhibition reaches its midpoint. Turning to `CCc1cccc(CC)c1NC(=O)COC(=O)c1ccccc1-c1nc2ccccc2s1`, the half-maximal inhibitory concentration (IC50) in assay [1] was 5.77 µM (active); in [2] it was 17.3 µM (not active).
As for `CCCN(CCC)C(=O)c1cccc(-n2sc3ccccc3c2=O)c1`, in assay [3], the IC50 was 18.1 µM (active).
In general, EC50 refers to the concentration giving half of the maximal effect. Consider `CSc1ncc(C(=O)Nc2ccc(Cl)cc2)c(C)n1`, for which the EC50 in [4] is 0.0222 µM (active).
Take `COc1cc2c(cc1OC)-c1cc(Nc3ccc(F)cc3)nc(=O)n1CC2`: the results for the concentration giving a half-maximal response (EC50) in assay [5], in [6] and in assay [7] were > 112 µM (not active), 1.82 µM (active) and < 0.3 µM (active), respectively.
For `Nc1c(C(=O)Nc2ccc3c(c2)OCCO3)nnn1Cc1cccc(F)c1`, the figures for the half-maximal inhibitory concentration (IC50) in assay [8] and in assay [9] were 13.7 µM (not active) and > 111 µM (not active), respectively.
As for `Cc1nc2ccc(C(=O)NCc3ccc4c(c3)OCO4)cc2s1`, the EC50 in assay [10] is given as > 120 µM (not active).
As to `S=C(NNC(=S)Nc1ccc(Cl)cc1)Nc1ccccc1`, on NADPH oxidase 1, the 50% inhibitory concentration (IC50) is 0.725 µM (active).
In the case of `O=c1nc2s/c(=C\c3ccco3)c(=O)n2nc1Cc1ccc(F)cc1`, the IC50 at Bcl-2-like protein 10 is 14.7 µM (active); at SUMO-activating enzyme [11], 7.36 µM (active); at SUMO-activating enzyme [12], 38.3 µM (active); in assay [13], > 109 µM (not active); on Estrogen receptor beta [14] it was 2.35 µM (active); at Estrogen receptor beta [15], 0.987 µM (not active). The 50% inhibitory concentration (IC50) on Bcl-2-like protein 1 was > 109 µM (not active).
